The nature of series [1]: Half life of the compound after 30 min by UV-spectrophotometric analysis in presence of 4-(4-nitrobenzyl)pyridine. It counts as physicochemical.
Series [2] in a line: Stability of the compound assessed as decomposition at 4 degC after 60 days by UV spectrophotometric analysis. To be noted: read-out: Drug degradation. The series is classed as physicochemical.
Series [3] can be described thus: Stability of the compound assessed as decomposition at 25 degC after 60 days by UV spectrophotometric analysis. It counts as physicochemical. To be noted: read-out: Drug degradation.
Series [4] relates to Brain. The experiment in a line: Half life in Rattus norvegicus (rat) brain homogenate assessed as conversion to 1-(4-Nitrobenzyl-3-{(bis(2-chloroethyl)amino)carbamoyl}pyridinium bromide at 6.25 x 10^-4 M by UV-spectrophotometric analysis. It counts as ADME, tissue-based. To be noted: 625 µM.
Series [5] deals with Blood. The experiment in a line: Half life in 100% Rattus norvegicus (rat) whole blood assessed as conversion to 1-(4-Nitrobenzyl-3-{(bis(2-chloroethyl)amino)carbamoyl}pyridinium bromide at 10 x 10^-4 M by UV-spectrophotometric analysis. It counts as ADME, tissue-based. To be noted: 1000 µM.
Series [6] has as its system Blood. Description: Half life in 100% Homo sapiens (human) whole blood assessed as conversion to 1-(4-Nitrobenzyl-3-{(bis(2-chloroethyl)amino)carbamoyl}pyridinium bromide at 10 x 10^-4 M by UV-spectrophotometric analysis. It counts as ADME, tissue-based. As to conditions: 1000 µM.
Series [7] in a line: Half life in silver nitrate solution assessed as conversion to1-(4-Nitrobenzyl-3-{(bis(2-chloroethyl)amino)carbamoyl}pyridinium bromide at 5% after 2 min by UV-Visible spectrophotometric analysis. It counts as physicochemical.
Series [8] deals with Brain. Description: Prodrug conversion in Sprague-Dawley Rattus norvegicus (rat) brain homogenate assessed as 1-(4-Nitrobenzyl-3-{(bis(2-chloroethyl)amino)carbamoyl}pyridinium bromide level at 40 mg/kg, iv measured at 15 min by UV-spectrophotometric analysis. The series is classed as ADME, organism-based. Set-up: dose 40 mg/kg, route intravenous. As to conditions: in vivo, 0.25 h.

In series [9] the test system is Blood. Description: Prodrug conversion in Sprague-Dawley Rattus norvegicus (rat) blood assessed as 1-(4-Nitrobenzyl-3-{(bis(2-chloroethyl)amino)carbamoyl}pyridinium bromide level at 40 mg/kg, iv measured at 150 min by UV-spectrophotometric analysis. The series is classed as ADME, organism-based. Set-up: dose 40 mg/kg, route intravenous. As to conditions: in vivo, 2.5 h.

Series [10] has as its system Blood. The experiment in a line: Prodrug conversion in Sprague-Dawley Rattus norvegicus (rat) blood assessed as assessed as 1-(4-Nitrobenzyl-3-{(bis(2-chloroethyl)amino)carbamoyl}pyridinium bromide level at 40 mg/kg, iv measured at 100 min by UV-spectrophotometric analysis. It counts as ADME, organism-based. The arrangement: dose 40 mg/kg, route intravenous. As to conditions: in vivo.

The test system of series [11] is Blood. Description: Prodrug conversion in Sprague-Dawley Rattus norvegicus (rat) blood assessed as 1-(4-Nitrobenzyl-3-{(bis(2-chloroethyl)amino)carbamoyl}pyridinium bromide level at 40 mg/kg, iv measured at 60 min by UV-spectrophotometric analysis. It counts as ADME, organism-based. Set-up: dose 40 mg/kg, route intravenous. As to conditions: in vivo, 1 h.
The subject of series [12] is Blood. The experiment in a line: Prodrug conversion in Sprague-Dawley Rattus norvegicus (rat) blood assessed as 1-(4-Nitrobenzyl-3-{(bis(2-chloroethyl)amino)carbamoyl}pyridinium bromide level at 40 mg/kg, iv measured at 30 min by UV-spectrophotometric analysis. It counts as ADME, organism-based. The arrangement: dose 40 mg/kg, route intravenous. To be noted: in vivo, 0.5 h.

The test system of series [13] is Blood. Description: Prodrug conversion in Sprague-Dawley Rattus norvegicus (rat) blood assessed as 1-(4-Nitrobenzyl-3-{(bis(2-chloroethyl)amino)carbamoyl}pyridinium bromide level at 40 mg/kg, iv measured at 15 min by UV-spectrophotometric analysis. As to conditions: in vivo, 0.25 h. Set-up: dose 40 mg/kg, route intravenous. It counts as ADME, organism-based.
For series [14], the system named is Brain. The experiment in a line: Prodrug conversion in Sprague-Dawley Rattus norvegicus (rat) brain homogenate assessed as 1-(4-Nitrobenzyl-3-{(bis(2-chloroethyl)amino)carbamoyl}pyridinium bromide level at 40 mg/kg, iv measured at 150 min by UV-spectrophotometric analysis. It counts as ADME, organism-based. Set-up: dose 40 mg/kg, route intravenous. To be noted: in vivo, 2.5 h.

Series [15] relates to Brain. Description: Prodrug conversion in Sprague-Dawley Rattus norvegicus (rat) brain homogenate assessed as 1-(4-Nitrobenzyl-3-{(bis(2-chloroethyl)amino)carbamoyl}pyridinium bromide level at 40 mg/kg, iv measured at 100 min by UV-spectrophotometric analysis. The series is classed as ADME, organism-based. Set-up: dose 40 mg/kg, route intravenous. To be noted: in vivo.
Series [16] deals with Brain. The experiment in a line: Prodrug conversion in Sprague-Dawley Rattus norvegicus (rat) brain homogenate assessed as 1-(4-Nitrobenzyl-3-{(bis(2-chloroethyl)amino)carbamoyl}pyridinium bromide level at 40 mg/kg, iv measured at 60 min by UV-spectrophotometric analysis. It counts as ADME, organism-based. The arrangement: dose 40 mg/kg, route intravenous. As to conditions: in vivo, 1 h.

The test system of series [17] is Brain. Description: Prodrug conversion in Sprague-Dawley Rattus norvegicus (rat) brain homogenate assessed as 1-(4-Nitrobenzyl-3-{(bis(2-chloroethyl)amino)carbamoyl}pyridinium bromide level at 40 mg/kg, iv measured at 30 min by UV-spectrophotometric analysis. The series is classed as ADME, organism-based. Set-up: dose 40 mg/kg, route intravenous. As to conditions: in vivo, 0.5 h.

The subject of series [18] is Brain. Description: Half life in Rattus norvegicus (rat) brain homogenate assessed as conversion to 1-Benzyl-3-{(bis(2-chloroethyl)amino)carbamoyl}pyridinium bromide at 6.25 x 10^-4 M by UV-spectrophotometric analysis. The series is classed as ADME, tissue-based. As to conditions: 625 µM.
Series [19] relates to Blood. Description: Half life in 100% Rattus norvegicus (rat) whole blood assessed as conversion to 1-Benzyl-3-{(bis(2-chloroethyl)amino)carbamoyl}pyridinium bromide at 10 x 10^-4 M by UV-spectrophotometric analysis. To be noted: 1000 µM. The series is classed as ADME, tissue-based.
The subject of series [20] is Blood. Description: Half life in 100% Homo sapiens (human) whole blood assessed as conversion to 1-Benzyl-3-{(bis(2-chloroethyl)amino)carbamoyl}pyridinium bromide at 10 x 10^-4 M by UV-spectrophotometric analysis. It counts as ADME, tissue-based. As to conditions: 1000 µM.
The nature of series [21]: Half life in silver nitrate solution assessed as conversion to 1-Benzyl-3-{(bis(2-chloroethyl)amino)carbamoyl}pyridinium bromide at 5% after 2 min by UV-Visible spectrophotometric analysis. The series is classed as physicochemical.

The record followed here is ChEMBL document CHEMBL3046664, “Synthesis in vitro/in vivo evaluation and in silico physicochemical study of prodrug approach for brain targeting of alkylating agent” (Med Chem Res, 2013).

As for `O=C(c1ccc[n+](Cc2ccc([N+](=O)[O-])cc2)c1)N(CCCl)CCCl.[Br-]`, the half-life (usually how long it takes for the measured level to halve) in [1] stood at 8.4 min.

`O=C(c1ccc[n+](Cc2ccccc2)c1)N(CCCl)CCCl.[Br-]`: the half-life in series [1] was 14.7 min.

Regarding `O=C(C1=CN(Cc2ccc([N+](=O)[O-])cc2)C=CC1)N(CCCl)CCCl`, the degraded at 1440 h in series [2] worked out at 3%; in series [3], 8%. Further, the t1/2 in the series with Brain [4] is listed as 31 min; in the series with Blood [5] it was 34 min; in the series on Blood [6], 39 min; in series [7], 7 min. The Drug metabolism in the series with Brain [8] was 4 µg/g; in the series with Blood [9], 0 µg/mL; with Blood [10], 12 µg/mL; with Blood [11] it was 35 µg/mL; in the series on Blood [12], 48 µg/mL; with Blood [13], 60 µg/mL. For the same compound, the Drug metabolism with Brain [14] amounted to 42 µg/g; with Brain [15], 27 µg/g; with Brain [16], 17 µg/g; in the series on Brain [17] it was 9 µg/g.

For `O=C(C1=CN(Cc2ccccc2)C=CC1)N(CCCl)CCCl`, the t1/2 in the series on Brain [18] amounted to 25 min; in the series on Blood [19], 29 min; with Blood [20], 36 min; in series [21] it was 5 min. Moreover, the results for the degraded at 1440 h in [2] and in [3] were 9% and 18%, respectively.
